Experimental data reported in article PMC8969299 (Chemical Engineering Journal, 2022).

Legend:
SARS-CoV-2 [1] = assay: Detection of SARS-CoV-2 in clinical patient samples using COVID19-PEB
SARS-CoV-2 S protein RBD = SARS-CoV-2 S protein RBD (Severe acute respiratory syndrome coronavirus 2, UniProt P0DTC2)
influenza A virus = assay: Fluorescence response of COVID19-PEB to influenza A virus; set-up: species or system influenza A (pH1N1) virus (Human/Canada/2009); settings: COVID 19-PEB 10 nmol in 100 µL; 25 °C; n = 3; Fig. 4d
SARS-CoV-2 [2] = assay: Fluorescence detection of SARS-CoV-2 in biofluids; settings: 10% nasal fluid and 10% saliva; n = 3; Fig. 5
HCoV-OC43 = assay: Fluorescence response of COVID19-PEB to HCoV-OC43; set-up: species or system Human coronavirus OC43 (HCoV-OC43); settings: COVID 19-PEB 10 nmol in 100 µL; 25 °C; n = 3; Fig. 4f
[3] = system: SARS-CoV-2 and its variants
[4] = Fluorescence lifetime of COVID19-PEB before/after annealing; type: physicochemical; settings: before annealing; Oligo-Cy3 and Oligo-BHQ2 fixed at 10 nmol; Fig. 3c
influenza B virus = assay: Fluorescence response of COVID19-PEB to influenza B virus; set-up: species or system influenza B viruses (Victoria Brisbane/20/2009); settings: COVID 19-PEB 10 nmol in 100 µL; 25 °C; n = 3; Fig. 4e
SARS-CoV-2 [5] = assay: Fluorescence

Substance: Cy3-TTTTGGGGG- I EEQA KTFL DKFN HEAE DLFY QSSL ASWK-CCCCCAAAA-BHQ2 [COVID19-PEB]
- detection of virus in PCR-confirmed patient samples (SARS-CoV-2 [1]): accurately detected the virus
- fluorescence intensity with increasing concentration of S proteins (SARS-CoV-2 S protein RBD): gradually increased with the increasing concentration of the S proteins
- time within which intensity change could be measured, S protein RBD (SARS-CoV-2 S protein RBD): ≤ 1 h
- change in fluorescence signal, influenza A virus (influenza A virus): no change in fluorescence signal was observed
- detection of SARS-CoV-2 in biofluid (SARS-CoV-2 [2]): efficiently detected SARS-CoV-2 in the biofluid, with high sensitivity
- change in fluorescence signal, HCoV-OC43 (HCoV-OC43): no change in fluorescence signal was observed
- discrimination among genetic mutations in SARS-CoV-2 [3]: does not effectively discriminate among the genetic mutations in SARS-CoV-2
- detection of SARS-CoV-2 and its variants ([3]; Fig. S5): useful for sensitive and rapid detection of SARS-CoV-2 and its variants
- fluorescence lifetime [4]: 2.23 ± 0.02 ns
- change in fluorescence signal, influenza B virus (influenza B virus): no change in fluorescence signal was observed
- detection time, SARS-CoV-2 (SARS-CoV-2 [5]; COVID19-PEB): ≤ 3 h
- detection time, SARS-CoV-2 (shortest stated) (SARS-CoV-2 [5]; COVID19-PEB): ≤ 50 min
- time within which intensity change could be measured, SARS-CoV-2 (SARS-CoV-2 [5]; COVID 19-PEB 10 nmol, Fig. S4): ≤ 1 h
- detection limit, SARS-CoV-2 (SARS-CoV-2 [5]; COVID19-PEB fluorescence, 100 µL test): 4 × 10^3 plaque-forming unit/test
